# Experimental data taken from ChEMBL document CHEMBL1149774, “Synthesis of N-(5,7-diamino-3-phenyl-quinoxalin-2-yl)-3,4,5-substituted anilines and N-[4[(5,7-diamino-3-phenylquinoxalin-2-yl)amino]benzoyl]-l-glutamic acid diethyl ester: evaluation of in vitro anti-cancer and anti-folate activities” (Eur J Med Chem, 2008).
# Calls of active or inactive are those of the source. No cut-off for these calls is given here.
# Experiments:
# OVCAR-8 = test: Growth inhibition of human OVCAR8 cells after 48 hrs by SRB staining method; type: functional; details: OVCAR-8, 48 h; for CC50: read-out: pLC50 (the source's name) (converted); for TGI: read-out: pTGI (converted)
# RPMI-8226 = test: Growth inhibition of human RPMI8226 cells after 48 hrs by SRB staining method; type: functional; details: RPMI-8226, 48 h; for CC50: read-out: pLC50 (the source's name) (converted); for TGI: read-out: pTGI (converted)
# NCI-H23 = test: Growth inhibition of human NCI-H23 cells after 48 hrs by SRB staining method; type: functional; details: NCI-H23, 48 h; for TGI: read-out: pTGI (converted)
# LOX IMVI = test: Growth inhibition of human LOX IMVI cells after 48 hrs by SRB staining method; type: functional; details: for TGI: read-out: pTGI (converted)
# IGROV-1 = test: Growth inhibition of human IGROV1 cells after 48 hrs by SRB staining method; type: functional; details: IGROV-1, 48 h; for TGI: read-out: pTGI (converted)
# SN12C = test: Growth inhibition of human SN12C cells after 48 hrs by SRB staining method; type: functional; details: for CC50: read-out: pLC50 (the source's name) (converted); for TGI: read-out: pTGI (converted)
# ACHN = test: Growth inhibition of human ACHN cells after 48 hrs by SRB staining method; type: functional; details: for CC50: read-out: pLC50 (the source's name) (converted); for TGI: read-out: pTGI (converted)
# SK-MEL-2 = test: Growth inhibition of human SK-MEL-2 cells after 48 hrs by SRB staining method; type: functional; details: SK-MEL-2, 48 h; for TGI: read-out: pTGI (converted)
# K562 = test: Growth inhibition of human K562 cells after 48 hrs by SRB staining method; type: functional; details: K562, 48 h; for CC50: read-out: pLC50 (the source's name) (converted); for TGI: read-out: pTGI (converted)
# KM12 = test: Growth inhibition of human KM12 cells after 48 hrs by SRB staining method; type: functional; details: KM12, 48 h; for TGI: read-out: pTGI (converted)
# SNB-19 = test: Growth inhibition of human SNB19 cells after 48 hrs by SRB staining method; type: functional; details: SNB-19, 48 h; for TGI: read-out: pTGI (converted)
# Thymidylate synthase = target: T1, Thymidylate synthase (Lactobacillus casei, UniProt P00469)
# T1 sequence (P00469 whole entry): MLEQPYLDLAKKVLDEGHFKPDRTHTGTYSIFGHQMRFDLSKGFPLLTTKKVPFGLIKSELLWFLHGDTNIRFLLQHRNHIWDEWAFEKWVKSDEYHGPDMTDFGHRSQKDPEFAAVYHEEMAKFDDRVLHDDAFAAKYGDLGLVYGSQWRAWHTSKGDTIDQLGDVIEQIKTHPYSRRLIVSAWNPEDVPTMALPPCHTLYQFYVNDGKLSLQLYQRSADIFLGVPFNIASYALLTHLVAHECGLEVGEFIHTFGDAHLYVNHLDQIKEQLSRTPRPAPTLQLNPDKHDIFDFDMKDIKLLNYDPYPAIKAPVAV
# Description: Inhibition of Lactobacillus casei thymidylate synthase
# SF-268 = test: Growth inhibition of human SF268 cells after 48 hrs by SRB staining method; type: functional; details: SF-268, 48 h; for CC50: read-out: pLC50 (the source's name) (converted); for TGI: read-out: pTGI (converted)
# MOLT-4 = test: Growth inhibition of human MOLT4 cells after 48 hrs by SRB staining method; type: functional; details: MOLT-4, 48 h; for CC50: read-out: pLC50 (the source's name) (converted); for TGI: read-out: pTGI (converted)
# PC-3 = test: Growth inhibition of human PC3 cells after 48 hrs by SRB staining method; type: functional; details: PC-3, 48 h; for CC50: read-out: pLC50 (the source's name) (converted); for TGI: read-out: pTGI (converted)
# MDA-MB-231 = test: Growth inhibition of human MDA-MB-231 cells after 48 hrs by SRB staining method; type: functional; details: MDA-MB-231, 48 h; for CC50: read-out: pLC50 (the source's name) (converted); for TGI: read-out: pTGI (converted)
# [1] = target: T2, Dihydrofolate reductase (Homo sapiens) (UniProt P00374); test: Inhibition of human dihydrofolate reductase at 10 uM
# T2 sequence (whole entry): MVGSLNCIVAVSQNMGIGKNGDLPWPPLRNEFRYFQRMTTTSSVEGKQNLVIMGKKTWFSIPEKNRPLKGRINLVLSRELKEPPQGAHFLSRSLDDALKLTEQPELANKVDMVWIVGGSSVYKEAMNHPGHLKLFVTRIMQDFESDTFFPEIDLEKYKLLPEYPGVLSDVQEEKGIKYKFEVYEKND
# [2] = Growth inhibition of human HS 578T cells after 48 hrs by SRB staining method; type: functional; details: for CC50: read-out: pLC50 (the source's name) (converted); for TGI: read-out: pTGI (converted)
# NCI/ADR-RES = test: Growth inhibition of human NCI/ADR-RES cells after 48 hrs by SRB staining method; type: functional; details: for CC50: read-out: pLC50 (the source's name) (converted); for TGI: read-out: pTGI (converted)
# A549 = test: Growth inhibition of human A549 cells after 48 hrs by SRB staining method; type: functional; details: A549, 48 h; for CC50: read-out: pLC50 (the source's name) (converted); for TGI: read-out: pTGI (converted)
# SF-539 = test: Growth inhibition of human SF539 cells after 48 hrs by SRB staining method; type: functional; details: SF-539, 48 h; for TGI: read-out: pTGI (converted)
# UACC-62 = test: Growth inhibition of human UACC62 cells after 48 hrs by SRB staining method; type: functional; details: UACC-62, 48 h; for TGI: read-out: pTGI (converted)
# BT-549 = test: Growth inhibition of human BT549 cells after 48 hrs by SRB staining method; type: functional; details: BT-549, 48 h; for CC50: read-out: pLC50 (the source's name) (converted); for TGI: read-out: pTGI (converted)
# HCC 2998 = test: Growth inhibition of human HCC2998 cells after 48 hrs by SRB staining method; type: functional; details: HCC 2998, 48 h
# HOP-92 = test: Growth inhibition of human HOP92 cells after 48 hrs by SRB staining method; type: functional; details: HOP-92, 48 h
# Dihydrofolate reductase = target: T3, Dihydrofolate reductase (Homo sapiens, UniProt P00374); test: Inhibition of human dihydrofolate reductase
# T3 sequence (P00374 whole entry): T2 sequence (whole entry)
# MDA-N = test: Growth inhibition of human MDA-N cells after 48 hrs by SRB staining method; type: functional
# CCRF-CEM = test: Growth inhibition of human CCRF-CEM cells after 48 hrs by SRB staining method; type: functional
# [3] = read-out: pLC50 (the source's name) (converted)
smiles,measurement,setting,value
COc1ccc(Nc2nc3cc(N)cc(N)c3nc2-c2ccccc2)cc1OC,GI50,OVCAR-8,33.9 µM
same,CC50,OVCAR-8,> 100 µM
same,TGI,OVCAR-8,> 100 µM
same,GI50,RPMI-8226,7.94 µM
same,CC50,RPMI-8226,87.1 µM
same,TGI,RPMI-8226,28.2 µM
same,GI50,NCI-H23,26.3 µM
same,LC50,NCI-H23,> 100 µM
same,TGI,NCI-H23,79.4 µM
same,GI50,LOX IMVI,25.7 µM
same,LC50,LOX IMVI,> 100 µM
same,TGI,LOX IMVI,72.4 µM
same,GI50,IGROV-1,24.5 µM
same,LC50,IGROV-1,> 100 µM
same,TGI,IGROV-1,> 100 µM
same,GI50,SN12C,16.6 µM
same,CC50,SN12C,> 100 µM
same,TGI,SN12C,43.7 µM
same,GI50,ACHN,27.5 µM
same,CC50,ACHN,> 100 µM
same,TGI,ACHN,> 100 µM
same,GI50,SK-MEL-2,26.9 µM
same,LC50,SK-MEL-2,> 100 µM
same,TGI,SK-MEL-2,> 100 µM
same,GI50,K562,20.4 µM
same,CC50,K562,> 100 µM
same,TGI,K562,70.8 µM
same,GI50,KM12,14.8 µM
same,LC50,KM12,69.2 µM
same,TGI,KM12,32.4 µM
same,GI50,SNB-19,35.5 µM
same,LC50,SNB-19,> 100 µM
same,TGI,SNB-19,> 100 µM
same,Ki,Thymidylate synthase,6 µM
same,GI50,SF-268,14.1 µM
same,CC50,SF-268,> 100 µM
same,TGI,SF-268,46.8 µM
same,GI50,MOLT-4,6.92 µM
same,CC50,MOLT-4,> 100 µM
same,TGI,MOLT-4,> 100 µM
same,GI50,PC-3,14.1 µM
same,CC50,PC-3,93.3 µM
same,TGI,PC-3,36.3 µM
same,GI50,MDA-MB-231,4.9 µM
same,CC50,MDA-MB-231,46.8 µM
same,TGI,MDA-MB-231,18.6 µM
same,Activity,[1],inactive
same,GI50,[2],18.6 µM
same,CC50,[2],> 100 µM
same,TGI,[2],50.1 µM
same,GI50,NCI/ADR-RES,17.4 µM
same,CC50,NCI/ADR-RES,> 100 µM
same,TGI,NCI/ADR-RES,42.7 µM
same,GI50,A549,35.5 µM
same,CC50,A549,> 100 µM
same,TGI,A549,> 100 µM
same,GI50,SF-539,16.2 µM
same,LC50,SF-539,87.1 µM
same,TGI,SF-539,37.2 µM
same,GI50,UACC-62,13.5 µM
same,LC50,UACC-62,56.2 µM
same,TGI,UACC-62,27.5 µM
same,GI50,BT-549,25.7 µM
same,CC50,BT-549,> 100 µM
same,TGI,BT-549,81.3 µM
same,GI50,HCC 2998,18.2 µM
same,LC50,HCC 2998,85.1 µM
same,TGI,HCC 2998; read-out: pTGI (converted),39.8 µM
COc1cc(Nc2nc3cc(N)cc(N)c3nc2-c2ccccc2)cc(OC)c1OC,GI50,OVCAR-8,15.5 µM
same,CC50,OVCAR-8,79.4 µM
same,TGI,OVCAR-8,34.7 µM
same,GI50,RPMI-8226,12.3 µM
same,CC50,RPMI-8226,85.1 µM
same,TGI,RPMI-8226,32.4 µM
same,GI50,NCI-H23,25.1 µM
same,LC50,NCI-H23,> 100 µM
same,TGI,NCI-H23,75.9 µM
same,GI50,LOX IMVI,18.6 µM
same,LC50,LOX IMVI,> 100 µM
same,TGI,LOX IMVI,49 µM
same,GI50,IGROV-1,15.8 µM
same,LC50,IGROV-1,> 100 µM
same,TGI,IGROV-1,57.5 µM
same,GI50,SN12C,20.4 µM
same,CC50,SN12C,> 100 µM
same,TGI,SN12C,83.2 µM
same,GI50,ACHN,16.6 µM
same,CC50,ACHN,> 100 µM
same,TGI,ACHN,42.7 µM
same,GI50,HOP-92,2.75 µM
same,LC50,HOP-92,91.2 µM
same,TGI,HOP-92; read-out: pTGI (converted),20.9 µM
same,GI50,SK-MEL-2,15.8 µM
same,LC50,SK-MEL-2,77.6 µM
same,TGI,SK-MEL-2,35.5 µM
same,GI50,K562,12.6 µM
same,CC50,K562,> 100 µM
same,TGI,K562,39.8 µM
same,GI50,KM12,10.7 µM
same,LC50,KM12,81.3 µM
same,TGI,KM12,29.5 µM
same,Ki,Dihydrofolate reductase,0.1 µM
same,GI50,MDA-N,10.5 µM
same,CC50,MDA-N; [3],93.3 µM
same,TGI,MDA-N; read-out: pTGI (converted),31.6 µM
same,GI50,SNB-19,33.1 µM
same,LC50,SNB-19,> 100 µM
same,TGI,SNB-19,> 100 µM
same,GI50,SF-268,18.2 µM
same,CC50,SF-268,> 100 µM
same,TGI,SF-268,60.3 µM
same,GI50,MOLT-4,2.57 µM
same,CC50,MOLT-4,56.2 µM
same,TGI,MOLT-4,18.2 µM
same,GI50,PC-3,14.1 µM
same,CC50,PC-3,> 100 µM
same,TGI,PC-3,58.9 µM
same,GI50,MDA-MB-231,11.2 µM
same,CC50,MDA-MB-231,77.6 µM
same,TGI,MDA-MB-231,29.5 µM
same,GI50,[2],15.1 µM
same,CC50,[2],> 100 µM
same,TGI,[2],77.6 µM
same,GI50,NCI/ADR-RES,14.5 µM
same,CC50,NCI/ADR-RES,> 100 µM
same,TGI,NCI/ADR-RES,43.7 µM
same,GI50,A549,29.5 µM
same,CC50,A549,> 100 µM
same,TGI,A549,> 100 µM
same,GI50,SF-539,14.8 µM
same,LC50,SF-539,56.2 µM
same,TGI,SF-539,28.8 µM
same,GI50,UACC-62,13.5 µM
same,LC50,UACC-62,74.1 µM
same,TGI,UACC-62,31.6 µM
same,GI50,BT-549,17 µM
same,CC50,BT-549,67.6 µM
same,TGI,BT-549,17 µM
same,GI50,CCRF-CEM,4.37 µM
same,CC50,CCRF-CEM; [3],> 100 µM
same,TGI,CCRF-CEM; read-out: pTGI (converted),41.7 µM
